Assay results taken from patent US5756511A, “Method for treating symptoms of a neurodegenerative condition” (Cell Therapeutics, Inc., priority 1995, dated 1998).

How the values were obtained:
[1] = system: endogenous APP; test: Western Blot of endogenous APP in culture supernatants of SH-SY5Y cells; type: cell-based; conditions: SH-SY5Y incubated 18 hours with 5 nM human TNFA and increasing concentrations of compound
Experimental: This Example illustrates the effect of representative compounds nos. 2576, 2583, 3501, 3577, 4522, 4533, 4535 and 4537 used in the inventive method on endogenous APP expression.
Cell cultures were prepared as in Example 1 using SH-SY5Y human neuroblastoma cells. Culture supernatants from SH-SY5Y cells incubated for 18 hours with 5 nM human TNFA and increasing concentrations of representative compounds identified above were separated on a 4-20% SDS-polyacrylamide gel and transferred to nitrocellulose. The nitrocellulose filter was probed with anti-APP antibody (Boehringer Mannheim, Indpls, Ind.), and the results visualized by Enhanced Chemiluminecence (Amersham Life Sciences, Arlington Heights, Ill.).

[2] = system: human amyloid precursor protein (APP) promoter; test: APP promoter-alkaline phosphatase (pHAPPro. 1) reporter assay in transfected SH-SY5Y cells stimulated with hTNFα; type: cell-based; conditions: SH-SY5Y transfected with pHAPPro. 1; 1 nM hTNFα; increasing concentrations of agent
Experimental: This example is an in vitro assay confirming activity of an ability of representative agents to inhibit APP synthesis by effecting the level of alkaline phosphatase in the culture medium of human neuroblastoma cells, SH-SY5Y (Beidler et al., 1978), expression of which is controlled by a human amyloid precursor protein (APP) promoter.
The SH-SY5Y were transfected with the promoter-alkaline phosphatase reporter gene construct pHAPPro. The transfected cells were prepared as follows:
A DNA fragment comprising nucleotide pairs -660 to +20 of the human APP promoter (Salbaum et al. 1988) was isolate by polymerase chain reaction using human placental DNA as a template. Xba I and ASP718 restriction endonuclease recognition sites were incorporated during amplification to facilitate subcloning upstream of an alkaline phosphatase reporter gene, forming the plasmid pHAPPro. 1, represented in FIG. 1. SH-SY5Y were subsequently transfected with pHAPPro. 1.
Comparing results obtained in this assay to a standard based on alkaline phosphatase expression controlled by a human phosphoglycerol kinase (PGK) promoter, relative to any cytotoxic effects an agent confirms therapeutic efficacy in the inventive method.
In all assays, controls were done in triplicate. Control assays specifically included assays using: 1) unstimulated cells; 2) cells stimulated with 1 nM hTNFαalone; 3) cells stimulated with 1 nM hTNFα and increasing concentrations of agent, as tested for all representative agents; 4) cells stimulated with 1 nM hTNFα and increasing concentrations of vehicle (100% ethanol), corresponding to vehicle concentrations in test agent preparations.
Subsequent validation of all results included repeating tests with an expanded dose range. Results obtained were compared to an agent's inhibition of constituitive promoter for the phosphoglycerol kinase gene and endogenous amyloid precursor protein expression in neuroblastoma cells
SH-SY5Y cells, prepared above, were plated into wells of a 96-well dish at a density of 20,000 cells per well in […] AIM V medium (Gibco/BRL, Gaithersburg, Md.: CAT# 21021-019). Dishes were incubated at 5% CO2 and 37° C. for 12 to 24 hours. […]
Culture medium […] from each well was transferred to a corresponding well of a 96-well ELISA dish and […] 1× SEAP (0.5M diethanolamine (pH 9.8); 0.25 mM MgCl2; 0.01 mM ZnSO4; 10 mM L-homoarginine; 1 mM para-nitrophenyphosphate, Berger et al., 1988.), prepared above, was added to each well. The plates were incubated 10 minutes in 5% CO2 and 37° C., after which the kinetic change in absorbance at 405 nm was measured on a BIOTEK plate reader.
All data were imported into plotting software for analysis. Triplicate data points were averaged and standard error (from mean) was calculated using accepted standards. […]

Row | Structure (SMILES) | inhibition of expression of endogenous APP (FIG. 3) [1] | inhibition of APP expression (FIG. 2) [2]
1 | CCCCCCCCNCC(O)CCCCCCCCCn1c(=O)c2c(ncn2C)n(C)c1=O (stereo not drawn) [Compound 2576] | inhibition of APP expression, in a dose-dependent manner | 
2 | CCCCCCCCCCNCC(O)CCCCCCCCCn1c(=O)c2c(ncn2C)n(C)c1=O (stereo not drawn) [Compound 2583] | inhibition of APP expression, in a dose-dependent manner | 
3 | COc1cc(CNCC(O)CCCCCCCCCn2c(=O)c3c(ncn3C)n(C)c2=O)cc(OC)c1OC (stereo not drawn) [Compound 3501] | inhibition of APP expression, in a dose-dependent manner | inhibit APP expression in a dose-dependent fashion
4 | COc1cc(CNC(=O)CCCCCCCCCCn2c(=O)c3c(ncn3C)n(C)c2=O)cc(OC)c1OC [Compound 3577] | inhibition of APP expression, in a dose-dependent manner | inhibit APP expression in a dose-dependent fashion
5 | COc1cc(CNC(CO)CCCCCCCCCn2c(=O)c3c(ncn3C)n(C)c2=O)cc(OC)c1OC (stereo not drawn) [Compound 4522] | inhibition of APP expression, in a dose-dependent manner | inhibit APP expression in a dose-dependent fashion
6 | Cn1cnc2c1c(=O)n(CCCCCCCCCCC(=O)NCc1ccc3c(c1)OCO3)c(=O)n2C [Compound 4533] | inhibition of APP expression, in a dose-dependent manner | 
7 | COc1cc(NC(=O)CCCCCCCCCCn2c(=O)c3c(ncn3C)n(C)c2=O)cc(OC)c1OC [Compound 4535] | inhibition of APP expression, in a dose-dependent manner | 
8 | CCCCCCCCN(CC(CCCCCCCCCn1c(=O)c2c(ncn2C)n(C)c1=O)OC(C)=O)C(C)=O (stereo not drawn) [Compound 4537] | inhibition of APP expression, in a dose-dependent manner | inhibit APP expression in a dose-dependent fashion
